Converted amounts (≈) assume the structure as drawn.
Experiments:
HIV [1] = test: human protein adjusted IC90; type: cell-based; conditions: Human immunodeficiency virus 1; reference line in FIG. 1 and FIG. 2
HIV [2] = conditions: cited from earlier work

| SMILES | IC90 (HIV [1]) [ng/mL] | reduced HIV viral load by a mean of (HIV [2]; patients with trough levels >=20 μg/mL and without key baseline Gag polymorphisms at Q369, V370 or T371) [log10/mL] | HIV viral load reduction versus patients without Gag polymorphisms (HIV [2]; users with Gag polymorphisms at Q369, V370 or T371) |
| --- | --- | --- | --- |
| CC(C)C1=C2[C@H]3CC[C@@H]4[C@@]5(C)CC[C@H](OC(=O)CC(C)(C)C(=O)O)C(C)(C)[C@@H]5CC[C@@]4(C)[C@]3(C)CC[C@@]2([C@@H](O)CN(CCN(C)C)Cc2ccc(Cl)cc2)CC1=O [first compound, 4-(((3aR,5aR,5bR,7aR,9S,11aR,11bR,13aS)-3a-((R)-2-((4-Chlorobenzyl)(2-(dimethylamino)ethyl)amino)-1-hydroxyethyl)-1-isopropyl-5a,5b,8,8,11a-pentamethyl-2-oxo-3,3a,4,5,5a,5b, 6,7,7a,8,9,10,11,11a,11b,12,13,13a-octadecahydro-2H-cyclopenta[a]chrysen-9-yl)oxy)-2,2-dimethyl-4-oxobutanoic acid] | 4.31 (≈ 5.32 nM) | – | – |
| C=C(C)[C@@H]1CC[C@]2(C(=O)O)CC[C@]3(C)[C@H](CC[C@@H]4[C@@]5(C)CC[C@H](OC(=O)CC(C)(C)C(=O)O)C(C)(C)[C@@H]5CC[C@]43C)[C@@H]12 [Bevirimat] | – | 1.3 | significantly lower load reductions |
